{
  "source": "patent US20240207288A1",
  "about": "“METHODS OF TREATING ESOPHAGEAL STRICTURES” (Ellodi Pharmaceuticals, L.P., priority 2021, published 2024)",
  "test_system": "subjects with strictures and/or rings and EoE",
  "experiment": "Clinical trial of FP ODT: dysphagia episodes (symptom response)",
  "type": "in vivo, human",
  "conditions": "subgroup with strictures and/or Grade 2 rings at baseline, Week 12",
  "protocol": "A clinical trial was performed to evaluate the effect of an orally disintegrating tablet (“ODT”) comprising fluticasone propionate (FP). A randomised, double-blind, placebo-controlled, multicentre, dose-ranging, and maintenance study of FP in subjects (>18 and <75 years of age) with strictures and/or rings and EoE. The trial examined four doses of FP to define the exposure-response of FP and the minimum effective dose to minimize significant hypothalamic-pituitary-adrenal (HPA) axis effects. The study (as shown in FIG. 1) was designed as follows. • (a) Screening: Patients with a confirmed diagnosis or presumptive diagnosis of EoE (including identifying strictures and/or rings) were selected for the study. An EoE diagnosis was confirmed by symptoms, histology, and historical documentation of failed treatment on >8 weeks of high-dose proton pump inhibitor (PPI). A high-dose PPI was defined as administration of a total dose of 20 to 40 mg of a marketed PPI once or twice daily.\nSubjects that participated in Part 1 studies were randomized and administered a treatment selected from: • (a) 1.5 mg HS: Placebo 30 minutes after breakfast and 1.5 mg HS (at bedtime); • (b) 1.5 mg BID: 1.5 mg 30 minutes after breakfast and at bedtime; total daily dose of 3 mg; • (c) 3 mg HS: Placebo 30 minutes after breakfast and 3 mg at bedtime; and • (d) 3 mg BID: 3.0 mg 30 minutes after breakfast and at bedtime; total daily dose of 6 mg. […]",
  "data": [
    {"substance": "S-(fluoromethyl)-6α,9-difluoro-11β, 17-dihydroxy-16α-methyl-3-oxoandrosta-1, 4-diene-17β-carbothioate, 17-propanoate [FP]", "values": [
      {"measurement": "Symptoms Responder Rate (≤50% reduction dysphagia episodes), %", "setting": "FP 1.5 mg BID (n = 12)", "result": 42, "unit": "%"},
      {"measurement": "Symptoms Responder Rate (≤50% reduction dysphagia episodes), %", "setting": "FP 1.5 mg HS (n = 13)", "result": 77, "unit": "%"},
      {"measurement": "Symptoms Responder Rate (≤50% reduction dysphagia episodes), %", "setting": "FP 3 mg BID (n = 7)", "result": 57, "unit": "%"},
      {"measurement": "Symptoms Responder Rate (≤50% reduction dysphagia episodes), %", "setting": "FP 3 mg HS (n = 11)", "result": 73, "unit": "%"},
      {"measurement": "Symptoms Responder Rate (≤50% reduction dysphagia episodes), %", "setting": "all FP dosing groups, TOTAL (n = 43)", "result": 63, "unit": "%"}
    ]}
  ]
}
